{"source": "PubChem BioAssay AID1963827", "about": "(Molecular Pharmacology Branch, DTP, NCI, 2024)", "test_system": "994946-033-R-J1-PDC complex spheroid viability", "experiment": "Anticancer human tumor 994946-033-R-J1-PDC patient-derived melanoma cell line growth inhibition [POLQ]", "conditions": "for IC50: curve of first compound; for viability, T/C: stronger effect = lower value", "outline": "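Growth inhibition in 3D: complex spheroids (tumor PDC, HUVEC, MSC) treated with POLQ inhibitor combinations; where Cmax unknown, highest tested concentration 10 microM, except SN-38 at 1 microM.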", "key": {"[1]": {"conditions": "second compound 0.0316 µM, first compound 0.0316 µM"}, "[2]": {"conditions": "second compound 0.0316 µM, first compound 0.1 µM"}, "[3]": {"conditions": "second compound 0.0316 µM, first compound 0.316 µM"}, "[4]": {"conditions": "second compound 0.0316 µM, first compound 1 µM"}, "[5]": {"conditions": "second compound 0.0316 µM, first compound 3.16 µM"}, "[6]": {"conditions": "second compound 0.0316 µM, first compound 10 µM"}, "[7]": {"conditions": "second compound 0.1 µM, first compound 0.0316 µM"}, "[8]": {"conditions": "second compound 0.1 µM, first compound 0.1 µM"}, "[9]": {"conditions": "second compound 0.1 µM, first compound 0.316 µM"}, "[10]": {"conditions": "second compound 0.1 µM, first compound 1 µM"}, "[11]": {"conditions": "second compound 0.1 µM, first compound 3.16 µM"}, "[12]": {"conditions": "second compound 0.1 µM, first compound 10 µM"}, "[13]": {"conditions": "second compound 0.316 µM, first compound 0.0316 µM"}, "[14]": {"conditions": "second compound 0.316 µM, first compound 0.1 µM"}, "[15]": {"conditions": "second compound 0.316 µM, first compound 0.316 µM"}, "[16]": {"conditions": "second compound 0.316 µM, first compound 1 µM"}, "[17]": {"conditions": "second compound 0.316 µM, first compound 3.16 µM"}, "[18]": {"conditions": "second compound 0.316 µM, first compound 10 µM"}, "[19]": {"conditions": "second compound 1 µM, first compound 0.0316 µM"}, "[20]": {"conditions": "second compound 1 µM, first compound 0.1 µM"}, "[21]": {"conditions": "second compound 1 µM, first compound 0.316 µM"}, "[22]": {"conditions": "second compound 1 µM, first compound 1 µM"}, "[23]": {"conditions": "second compound 1 µM, first compound 3.16 µM"}, "[24]": {"conditions": "second compound 1 µM, first compound 10 µM"}, "[25]": {"conditions": "second compound 3.16 µM, first compound 0.0316 µM"}, "[26]": {"conditions": "second compound 3.16 µM, first compound 0.1 µM"}, "[27]": {"conditions": "second compound 3.16 µM, first compound 0.316 µM"}, "[28]": {"conditions": "second compound 3.16 µM, first compound 1 µM"}, "[29]": {"conditions": "second compound 3.16 µM, first compound 3.16 µM"}, "[30]": {"conditions": "second compound 3.16 µM, first compound 10 µM"}, "[31]": {"conditions": "second compound 10 µM, first compound 0.0316 µM"}, "[32]": {"conditions": "second compound 10 µM, first compound 0.1 µM"}, "[33]": {"conditions": "second compound 10 µM, first compound 0.316 µM"}, "[34]": {"conditions": "second compound 10 µM, first compound 1 µM"}, "[35]": {"conditions": "second compound 10 µM, first compound 3.16 µM"}, "[36]": {"conditions": "second compound 10 µM, first compound 10 µM"}}, "data": [{"compound": "COc1ccc([C@@H](O)c2cc(-c3ncnc4cc(N5CCOCC5)ccc34)c(F)cc2Cl)nn1", "note": "+ Nc1ccc(C#CCN(C(=O)Cc2ncc(C(F)(F)F)cc2C(F)(F)F)c2ccc(F)cc2)nn1;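 further: spheroids exposed to drugs for 7 days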;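 on viability, T/C: 100% = DMSO vehicle treated spheroids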", "values": [{"measurement": "IC50", "setting": "second compound 0.0316 µM", "value": 4.98, "unit": "µM"}, {"measurement": "IC50", "setting": "second compound 0.1 µM", "value": 6.83, "unit": "µM"}, {"measurement": "IC50", "setting": "second compound 0.316 µM", "value": 3.13, "unit": "µM"}, {"measurement": "IC50", "setting": "second compound 1 µM", "value": "> 10", "unit": "µM"}, {"measurement": "IC50", "setting": "second compound 3.16 µM", "value": 7.07, "unit": "µM"}, {"measurement": "IC50", "setting": "second compound 10 µM", "value": 4.52, "unit": "µM"}, {"measurement": "viability, T/C", "setting": "[1]", "value": 90.3, "unit": "%"}, {"measurement": "viability, T/C", "setting": "[2]", "value": 114, "unit": "%"}, {"measurement": "viability, T/C", "setting": "[3]", "value": 75.5, "unit": "%"}, {"measurement": "viability, T/C", "setting": "[4]", "value": 89, "unit": "%"}, {"measurement": "viability, T/C", "setting": "[5]", "value": 52.8, "unit": "%"}, {"measurement": "viability, T/C", "setting": "[6]", "value": 45.2, "unit": "%"}, {"measurement": "viability, T/C", "setting": "[7]", "value": 91.6, "unit": "%"}, {"measurement": "viability, T/C", "setting": "[8]", "value": 112, "unit": "%"}, {"measurement": "viability, T/C", "setting": "[9]", "value": 99.4, "unit": "%"}, {"measurement": "viability, T/C", "setting": "[10]", "value": 98.7, "unit": "%"}, {"measurement": "viability, T/C", "setting": "[11]", "value": 62, "unit": "%"}, {"measurement": "viability, T/C", "setting": "[12]", "value": 44.1, "unit": "%"}, {"measurement": "viability, T/C", "setting": "[13]", "value": 93.3, "unit": "%"}, {"measurement": "viability, T/C", "setting": "[14]", "value": 111, "unit": "%"}, {"measurement": "viability, T/C", "setting": "[15]", "value": 116, "unit": "%"}, {"measurement": "viability, T/C", "setting": "[16]", "value": 90.6, "unit": "%"}, {"measurement": "viability, T/C", "setting": "[17]", "value": 50.7, "unit": "%"}, {"measurement": "viability, T/C", "setting": "[18]", "value": 37.3, "unit": "%"}, {"measurement": "viability, T/C", "setting": "[19]", "value": 114, "unit": "%"}, {"measurement": "viability, T/C", "setting": "[20]", "value": 117, "unit": "%"}, {"measurement": "viability, T/C", "setting": "[21]", "value": 115, "unit": "%"}, {"measurement": "viability, T/C", "setting": "[22]", "value": 61.4, "unit": "%"}, {"measurement": "viability, T/C", "setting": "[23]", "value": 64.5, "unit": "%"}, {"measurement": "viability, T/C", "setting": "[24]", "value": 55.1, "unit": "%"}, {"measurement": "viability, T/C", "setting": "[25]", "value": 109, "unit": "%"}, {"measurement": "viability, T/C", "setting": "[26]", "value": 87, "unit": "%"}, {"measurement": "viability, T/C", "setting": "[27]", "value": 102, "unit": "%"}, {"measurement": "viability, T/C", "setting": "[28]", "value": 91.3, "unit": "%"}, {"measurement": "viability, T/C", "setting": "[29]", "value": 67.5, "unit": "%"}, {"measurement": "viability, T/C", "setting": "[30]", "value": 42.5, "unit": "%"}, {"measurement": "viability, T/C", "setting": "[31]", "value": 116, "unit": "%"}, {"measurement": "viability, T/C", "setting": "[32]", "value": 126, "unit": "%"}, {"measurement": "viability, T/C", "setting": "[33]", "value": 102, "unit": "%"}, {"measurement": "viability, T/C", "setting": "[34]", "value": 75.7, "unit": "%"}, {"measurement": "viability, T/C", "setting": "[35]", "value": 62.2, "unit": "%"}, {"measurement": "viability, T/C", "setting": "[36]", "value": 34, "unit": "%"}]}, {"compound": "CC1COCCN1c1cc(C2(O)CC3CCC(C2)O3)c2cnn(-c3ccn[nH]3)c2n1", "note": "(centres undefined) + Nc1ccc(C#CCN(C(=O)Cc2ncc(C(F)(F)F)cc2C(F)(F)F)c2ccc(F)cc2)nn1", "values": [{"measurement": "IC50", "setting": "second compound 0.0316 µM", "value": 0.0513, "unit": "µM"}, {"measurement": "IC50", "setting": "second compound 0.1 µM", "value": "< 0.0316", "unit": "µM"}, {"measurement": "IC50", "setting": "second compound 0.316 µM", "value": "< 0.0316", "unit": "µM"}, {"measurement": "IC50", "setting": "second compound 1 µM", "value": 0.0687, "unit": "µM"}, {"measurement": "IC50", "setting": "second compound 3.16 µM", "value": 0.0386, "unit": "µM"}, {"measurement": "IC50", "setting": "second compound 10 µM", "value": "< 0.0316", "unit": "µM"}, {"measurement": "viability, T/C", "setting": "[1]", "value": 59.9, "unit": "%"}, {"measurement": "viability, T/C", "setting": "[2]", "value": 36.3, "unit": "%"}, {"measurement": "viability, T/C", "setting": "[3]", "value": 23.4, "unit": "%"}, {"measurement": "viability, T/C", "setting": "[4]", "value": 18.8, "unit": "%"}, {"measurement": "viability, T/C", "setting": "[5]", "value": 13.9, "unit": "%"}, {"measurement": "viability, T/C", "setting": "[6]", "value": 6.85, "unit": "%"}, {"measurement": "viability, T/C", "setting": "[7]", "value": 43.3, "unit": "%"}, {"measurement": "viability, T/C", "setting": "[8]", "value": 27.6, "unit": "%"}, {"measurement": "viability, T/C", "setting": "[9]", "value": 24.2, "unit": "%"}, {"measurement": "viability, T/C", "setting": "[10]", "value": 19.9, "unit": "%"}, {"measurement": "viability, T/C", "setting": "[11]", "value": 10.6, "unit": "%"}, {"measurement": "viability, T/C", "setting": "[12]", "value": 9.96, "unit": "%"}, {"measurement": "viability, T/C", "setting": "[13]", "value": 48.5, "unit": "%"}, {"measurement": "viability, T/C", "setting": "[14]", "value": 24.9, "unit": "%"}, {"measurement": "viability, T/C", "setting": "[15]", "value": 26.3, "unit": "%"}, {"measurement": "viability, T/C", "setting": "[16]", "value": 19.6, "unit": "%"}, {"measurement": "viability, T/C", "setting": "[17]", "value": 17.6, "unit": "%"}, {"measurement": "viability, T/C", "setting": "[18]", "value": 9.49, "unit": "%"}, {"measurement": "viability, T/C", "setting": "[19]", "value": 74.5, "unit": "%"}, {"measurement": "viability, T/C", "setting": "[20]", "value": 31.9, "unit": "%"}, {"measurement": "viability, T/C", "setting": "[21]", "value": 33.7, "unit": "%"}, {"measurement": "viability, T/C", "setting": "[22]", "value": 10.7, "unit": "%"}, {"measurement": "viability, T/C", "setting": "[23]", "value": 13, "unit": "%"}, {"measurement": "viability, T/C", "setting": "[24]", "value": 9.29, "unit": "%"}, {"measurement": "viability, T/C", "setting": "[25]", "value": 55.6, "unit": "%"}, {"measurement": "viability, T/C", "setting": "[26]", "value": 22.8, "unit": "%"}, {"measurement": "viability, T/C", "setting": "[27]", "value": 19.8, "unit": "%"}, {"measurement": "viability, T/C", "setting": "[28]", "value": 21.4, "unit": "%"}, {"measurement": "viability, T/C", "setting": "[29]", "value": 17.8, "unit": "%"}, {"measurement": "viability, T/C", "setting": "[30]", "value": 8.76, "unit": "%"}, {"measurement": "viability, T/C", "setting": "[31]", "value": 38.3, "unit": "%"}, {"measurement": "viability, T/C", "setting": "[32]", "value": 54.1, "unit": "%"}, {"measurement": "viability, T/C", "setting": "[33]", "value": 24.6, "unit": "%"}, {"measurement": "viability, T/C", "setting": "[34]", "value": 23.6, "unit": "%"}, {"measurement": "viability, T/C", "setting": "[35]", "value": 14.6, "unit": "%"}, {"measurement": "viability, T/C", "setting": "[36]", "value": 5.15, "unit": "%"}]}]}
